# Columns and labels:
# CYP2D6 = target: T1, CYP2D6 (Homo sapiens, UniProt P10635); assay: Cocktail assay for CYPs in human liver microsomes, dextromethorphan O-demethylation (2D6); type: biochemical; conditions: 5 μM dextromethorphan, 10 min at 37° C.
# T1 construct: 0.1 mg/mL protein human liver microsomes (BD Gentest); tissue BD Gentest; host or cells: human liver microsomes
# Protocol: (§1) This assay was performed in a standard 96-well plate design. IC50 values were calculated from the percent inhibition observed for each test compound at 6 concentrations (for example, 0.0032, 0.016, 0.08, 0.4, 2 and 10 μM). The incubation substrate mix contains 10 μM phenacetin (1A2), 5 μM diclofenac (2C9), 30 μM mephenytoin (2C19), 5 μM dextromethorphan (2D6) and 2 μM midazolam (3A4), 0.1 mg/mL protein human liver microsomes (BD Gentest), 1 mM NAPDH, 3.3 mM MgCl2 and 100 mM potassium phosphate buffer (pH 7.4). The production of the metabolite of each probe substrate was determined after incubation for 10 min at 37° C. Quantitation of the metabolite peak area ratio against an internal standard (tolbutamide) was determined by LC/MS/MS analysis following acetonitrile treatment of the incubations.
# (§2) Samples were analyzed in the MRM mode with a SCIEX API-4000 mass spectrometer (Applied Biosystems, Foster City, Calif.), with a Shimadzu LC-20 AD pump (Shimadzu corporation, Kyoto, JP) and a CTC PAL autosampler (Agilent Technologies, Switzerland). A Phenomenex, Luna, 5 μm, 100A, 2.00×30 mm HPLC column was used for the separation. The mobile phases were: (A) 0.1% formic acid in water and (B) 0.1% formic acid in acetonitrile. The binary gradient was as follows. AutoSampler: CTC PAL
# (§3) The peak area ratio of the analyte to the internal standard was used to quantify the metabolite. The values of peak area ratios in the presence of test compound were compared to those of maximum or minimum controls and were expressed as % inhibition by interpolating between the maximum and minimum peak area ratios. Incubations with no inhibitor were defined as the maxima. The following equation was used to calculate the % inhibition: [1−[(X−Low control)/(High control−Low control)]]*100 For the IC50 calculation, SigmaPlot was used to plot the mean % inhibition versus the test compound concentrations and for non-linear regression analysis of the data. Depending on the range of data points defining the inhibition curve, the data may have been fit to the 4-parameter logistic equation.
# CYP3A4 = target: T2, CYP3A4 (Homo sapiens, UniProt P08684); assay: Cocktail assay for CYPs in human liver microsomes, midazolam 1′-hydroxylation (3A4); type: biochemical; conditions: 2 μM midazolam, 10 min at 37° C.
# T2 construct: 0.1 mg/mL protein human liver microsomes (BD Gentest); tissue BD Gentest; host or cells: human liver microsomes
# T2 sequence (P08684 whole entry): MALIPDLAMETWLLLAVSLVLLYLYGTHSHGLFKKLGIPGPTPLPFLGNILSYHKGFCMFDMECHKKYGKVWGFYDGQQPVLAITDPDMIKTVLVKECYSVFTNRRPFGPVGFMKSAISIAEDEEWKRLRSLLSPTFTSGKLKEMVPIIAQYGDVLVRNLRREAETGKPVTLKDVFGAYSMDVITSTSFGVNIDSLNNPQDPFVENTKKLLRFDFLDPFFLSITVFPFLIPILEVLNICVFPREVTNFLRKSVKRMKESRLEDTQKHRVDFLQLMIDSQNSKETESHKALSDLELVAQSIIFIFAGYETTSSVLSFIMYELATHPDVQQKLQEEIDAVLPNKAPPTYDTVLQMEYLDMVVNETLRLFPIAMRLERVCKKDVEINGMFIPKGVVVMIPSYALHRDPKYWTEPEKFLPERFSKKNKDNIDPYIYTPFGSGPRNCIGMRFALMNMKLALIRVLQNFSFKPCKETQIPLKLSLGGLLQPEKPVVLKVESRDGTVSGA
# Protocol: as §1, §2, §3
# CYP2C9 = target: T3, CYP2C9 (Homo sapiens, UniProt P11712); assay: Cocktail assay for CYPs in human liver microsomes, diclofenac 4′-hydroxylation (2C9); type: biochemical; conditions: 5 μM diclofenac, 10 min at 37° C.
# T3 construct: 0.1 mg/mL protein human liver microsomes (BD Gentest); tissue BD Gentest; host or cells: human liver microsomes
# T3 sequence (P11712 whole entry): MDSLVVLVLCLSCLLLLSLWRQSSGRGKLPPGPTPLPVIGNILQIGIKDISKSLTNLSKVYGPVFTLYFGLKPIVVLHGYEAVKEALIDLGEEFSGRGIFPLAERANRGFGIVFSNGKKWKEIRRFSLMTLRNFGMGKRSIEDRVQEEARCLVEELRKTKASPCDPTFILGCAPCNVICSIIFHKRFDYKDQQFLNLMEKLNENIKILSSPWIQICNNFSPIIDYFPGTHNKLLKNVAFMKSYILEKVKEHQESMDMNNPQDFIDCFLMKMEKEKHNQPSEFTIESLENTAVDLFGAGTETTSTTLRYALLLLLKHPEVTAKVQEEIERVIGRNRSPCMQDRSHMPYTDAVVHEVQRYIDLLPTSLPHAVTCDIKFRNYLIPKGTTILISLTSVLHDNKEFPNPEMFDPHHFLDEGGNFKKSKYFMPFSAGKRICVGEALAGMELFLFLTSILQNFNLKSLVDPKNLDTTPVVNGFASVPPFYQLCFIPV
# Protocol: as §1, §2, §3
# CYP1A2 = target: T4, CYP1A2 (Homo sapiens, UniProt P05177); assay: Cocktail assay for CYPs in human liver microsomes, phenacetin O-deethylation (1A2); type: biochemical; conditions: 10 μM phenacetin, 10 min at 37° C.
# T4 construct: 0.1 mg/mL protein human liver microsomes (BD Gentest); tissue BD Gentest; host or cells: human liver microsomes
# T4 sequence (P05177 1-516): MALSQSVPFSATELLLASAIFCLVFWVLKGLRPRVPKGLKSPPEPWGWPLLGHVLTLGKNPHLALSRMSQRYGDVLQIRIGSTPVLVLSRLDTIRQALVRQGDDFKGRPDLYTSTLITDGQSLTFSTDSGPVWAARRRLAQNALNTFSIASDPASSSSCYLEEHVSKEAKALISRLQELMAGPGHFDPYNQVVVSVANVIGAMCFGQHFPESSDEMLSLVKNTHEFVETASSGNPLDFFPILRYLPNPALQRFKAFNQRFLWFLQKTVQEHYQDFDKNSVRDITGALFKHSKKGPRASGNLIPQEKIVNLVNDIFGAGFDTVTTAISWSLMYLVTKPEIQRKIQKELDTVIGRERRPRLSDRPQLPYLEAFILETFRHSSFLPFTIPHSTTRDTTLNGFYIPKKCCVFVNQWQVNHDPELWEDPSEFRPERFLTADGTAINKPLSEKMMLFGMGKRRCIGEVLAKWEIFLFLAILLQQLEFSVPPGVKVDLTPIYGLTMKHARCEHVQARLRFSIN
# Protocol: as §1, §2, §3
# CYP2C19 = target: T5, CYP2C19 (Homo sapiens, UniProt P33261); assay: Cocktail assay for CYPs in human liver microsomes, mephenytoin 4′-hydroxylation (2C19); type: biochemical; conditions: 30 μM mephenytoin, 10 min at 37° C.
# T5 construct: 0.1 mg/mL protein human liver microsomes (BD Gentest); tissue BD Gentest; host or cells: human liver microsomes
# T5 sequence (P33261 whole entry): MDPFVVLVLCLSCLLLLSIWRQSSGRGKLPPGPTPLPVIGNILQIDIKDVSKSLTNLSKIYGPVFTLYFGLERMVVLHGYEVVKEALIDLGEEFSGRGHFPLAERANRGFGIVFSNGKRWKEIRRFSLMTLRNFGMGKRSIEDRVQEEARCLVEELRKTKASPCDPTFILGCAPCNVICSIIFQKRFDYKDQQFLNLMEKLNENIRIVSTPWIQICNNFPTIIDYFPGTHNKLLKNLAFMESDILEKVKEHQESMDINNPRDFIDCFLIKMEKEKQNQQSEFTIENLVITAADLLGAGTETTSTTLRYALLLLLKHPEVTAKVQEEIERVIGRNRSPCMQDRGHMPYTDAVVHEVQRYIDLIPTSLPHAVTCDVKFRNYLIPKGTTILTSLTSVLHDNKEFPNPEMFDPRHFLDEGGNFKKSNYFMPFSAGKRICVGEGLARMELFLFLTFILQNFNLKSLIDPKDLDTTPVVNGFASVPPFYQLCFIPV
# Protocol: as §1, §2, §3
# human CYP11B2 = target: T6, human CYP11B2 (Homo sapiens, UniProt P19099); assay: IC50 vs CYP11B2 by measurement of aldosterone synthesis in V79 cells; type: cell-based; conditions: V79 cells expressing human CYP11B2, 750 nM DOC, aldosterone HTRF
# T6 construct: expressed in transfected cells
# T6 sequence (P19099 25-503): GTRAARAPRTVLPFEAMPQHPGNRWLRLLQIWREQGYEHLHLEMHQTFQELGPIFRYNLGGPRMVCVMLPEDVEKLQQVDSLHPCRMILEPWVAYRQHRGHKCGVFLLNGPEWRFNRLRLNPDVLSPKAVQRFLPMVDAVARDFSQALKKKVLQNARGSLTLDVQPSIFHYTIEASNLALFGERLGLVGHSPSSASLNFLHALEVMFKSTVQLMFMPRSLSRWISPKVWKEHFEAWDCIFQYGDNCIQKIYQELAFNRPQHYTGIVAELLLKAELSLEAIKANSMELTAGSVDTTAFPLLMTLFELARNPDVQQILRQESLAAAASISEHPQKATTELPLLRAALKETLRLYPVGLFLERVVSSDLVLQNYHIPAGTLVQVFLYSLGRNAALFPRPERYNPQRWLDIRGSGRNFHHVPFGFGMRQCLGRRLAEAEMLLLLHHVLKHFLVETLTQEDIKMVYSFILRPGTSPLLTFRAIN
# Protocol: (§4) This assay was performed in a standard 384-well plate design using cultured V79 cells stably expressing human CYP11B1 or human CYP11B2. Test compounds at 10 concentrations (for example, 10000, 3333.3, 1111.1, 370.4, 123.5, 41.2, 13.7, 4.6, 1.5 and 0.5 nM) were added in 384-well plate after the cell-seeding procedure. The incubation substrate contains 1500 nM RSS for CYP11B1 assay/750 nM DOC for CYP11B2 assay. The Cortisol/Aldosterone production of cell culture supernatant was determined by Cortisol/Aldosterone HTRF kit after for about 15 hours incubation at RT (protect from light). IC50 (nM) values were calculated from the percent inhibition observed for each test compound at 10 concentrations.
# (§5) The assay plate was read using Envision (Perkin Elmer, Waltham, Mass.) at 665 nm and 590 nm (using Filter Barcode of 217#, 205#; Mirror Barcode of 446#).
# (§6) Data are analyzed using Assay Data Analyzer. All ratio data (665 nm/590 nm) are back calculated according to the standard curve, resulting in Cortisol/Aldosterone concentrations. IC50 (nM) values are reported as the Inflection Point (IP) of a four parameter fit of the titration data.
# (§7) The following equation was used to calculate the % inhibition: % Activity=100×{1−(Sample_back calculated Cortisol/Aldosterone concentration−LC_back calculated Cortisol/Aldosterone concentration)/(HC_back calculated Cortisol/Aldosterone concentration−LC_back calculated Cortisol/Aldosterone concentration)} Curve Fitting: Four Parameter Logistic: […]
# human CYP11B1 = target: T7, human CYP11B1 (Homo sapiens, UniProt P15538); assay: IC50 vs CYP11B1 by measurement of cortisol synthesis in V79 cells; type: cell-based; conditions: V79 cells expressing human CYP11B1, 1500 nM RSS, cortisol HTRF
# T7 construct: expressed in transfected cells
# T7 sequence (P15538 25-503): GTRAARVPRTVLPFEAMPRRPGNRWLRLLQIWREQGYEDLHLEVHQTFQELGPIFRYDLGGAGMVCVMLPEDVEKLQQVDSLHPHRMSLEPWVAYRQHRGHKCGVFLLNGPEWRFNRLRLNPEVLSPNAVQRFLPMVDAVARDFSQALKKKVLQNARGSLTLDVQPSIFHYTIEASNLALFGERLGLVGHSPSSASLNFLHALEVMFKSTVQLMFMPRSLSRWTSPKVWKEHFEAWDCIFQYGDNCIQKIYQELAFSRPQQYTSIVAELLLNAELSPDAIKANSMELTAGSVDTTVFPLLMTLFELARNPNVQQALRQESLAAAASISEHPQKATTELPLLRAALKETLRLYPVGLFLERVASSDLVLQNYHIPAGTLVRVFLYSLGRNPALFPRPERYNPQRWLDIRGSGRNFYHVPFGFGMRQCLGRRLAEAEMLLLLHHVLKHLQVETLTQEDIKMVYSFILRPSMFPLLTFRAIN
# Protocol: as §4, §5, §6, §7
# T1 sequence (P10635 whole entry): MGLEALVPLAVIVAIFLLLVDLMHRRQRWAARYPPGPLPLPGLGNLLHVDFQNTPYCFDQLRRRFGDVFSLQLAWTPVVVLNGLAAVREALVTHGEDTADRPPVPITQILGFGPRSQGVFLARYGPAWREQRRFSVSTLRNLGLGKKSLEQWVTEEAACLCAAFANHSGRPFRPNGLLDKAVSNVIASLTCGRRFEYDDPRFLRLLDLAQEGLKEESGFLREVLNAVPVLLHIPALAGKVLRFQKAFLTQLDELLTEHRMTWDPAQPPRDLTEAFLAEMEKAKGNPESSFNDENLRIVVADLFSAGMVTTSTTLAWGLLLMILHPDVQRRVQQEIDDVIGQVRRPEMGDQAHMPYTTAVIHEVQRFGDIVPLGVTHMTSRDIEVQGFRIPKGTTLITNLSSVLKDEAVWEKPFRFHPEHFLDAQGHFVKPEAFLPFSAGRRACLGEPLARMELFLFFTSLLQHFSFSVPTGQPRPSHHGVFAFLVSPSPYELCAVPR
Structure (SMILES),IC50 (CYP2D6),IC50 (CYP3A4),IC50 (CYP2C9),IC50 (CYP1A2),IC50 (CYP2C19),IC50 (human CYP11B2),IC50 (human CYP11B1)
C[C@@H](c1ccccc1-c1ccc(F)cc1)n1cncc1C(=O)N1CCC2NC(=O)CO[C@@H]2C1 (mixture of isomers) [Compound 50],8.08 µM,0.0053 µM,> 10 µM,> 10 µM,> 10 µM,> 50 µM,26.9 µM
C[C@@H](c1ccccc1-c1ccc(F)cc1)n1cncc1C(=O)N1CC[C@@H](N2CCC(O)CC2)[C@@H](F)C1 [Compound 2],> 10 µM,0.005 µM,> 10 µM,> 10 µM,> 10 µM,31 µM,24.3 µM
C[C@@H](c1ccccc1-c1ccc(F)cc1)n1cncc1C(=O)N1CCn2c(nnc2C2CC2)C1 [Compound 5],≥ 10 µM,0.0061 µM,> 10 µM,> 10 µM,7.57 µM,> 50 µM,42.6 µM
"C[C@@H](c1ccccc1-c1ccc(F)cc1)n1cncc1C(=O)N1CCN2C[C@H](O)C[C@H]2C1 [Compound 6, (1-((S)-1-(4′-fluoro-[1,1′-biphenyl]-2-yl)ethyl)-1H-imidazol-5-yl)((7R,8aS)-7-hydroxyhexahydro-pyrrolo[1,2-a]pyrazin-2(1H)-yl)methanone]",> 10 µM,0.0089 µM,> 10 µM,> 10 µM,> 10 µM,> 50 µM,29.7 µM
"CCc1nnc2n1CCN(C(=O)c1cncn1[C@@H](C)c1ccccc1-c1ccc(F)cc1)C2 [Compound 7, (S)-(3-ethyl-5,6-dihydro-[1,2,4]triazolo[4,3-a]pyrazin-7(8H)-yl)(1-(1-(4′-fluoro-[1,1′-biphenyl]-2-yl)ethyl)-1H-imidazol-5-yl)methanone]",> 10 µM,0.0057 µM,> 10 µM,> 10 µM,> 10 µM,> 50 µM,45.5 µM
C[C@@H](c1ccccc1-c1ccc(F)cc1)n1cncc1C(=O)N1CCC(N2CCC[C@H](O)C2)CC1 [Compound 8],> 10 µM,0.0056 µM,> 10 µM,> 10 µM,> 10 µM,> 50 µM,21 µM
CO[C@H]1CN(C2CCN(C(=O)c3cncn3[C@@H](C)c3ccccc3-c3ccc(F)cc3)CC2)CC[C@H]1O [Compound 11],7.06 µM,0.006 µM,> 10 µM,> 10 µM,> 10 µM,> 50 µM,26.7 µM

# The next compounds have a lower IC50 (CYP2D6) than those just listed; values first:
IC50 (CYP2D6),IC50 (CYP3A4),IC50 (CYP2C9),IC50 (CYP1A2),IC50 (CYP2C19),IC50 (human CYP11B2),IC50 (human CYP11B1),Structure (SMILES)
6.63 µM,0.0066 µM,> 10 µM,> 10 µM,> 10 µM,> 50 µM,24.9 µM,C[C@@H](c1ccccc1-c1ccc(F)cc1)n1cncc1C(=O)N1CCC(N2CCCC(C)(O)C2)CC1 (some centres unmarked) [Compound 9]
6.55 µM,0.0068 µM,> 10 µM,> 10 µM,> 10 µM,> 50 µM,33.5 µM,C[C@@H](c1ccccc1-c1ccc(F)cc1)n1cncc1C(=O)N1CCC(N2CCC(O)CC2)CC1 [Compound 1]
5.91 µM,0.005 µM,> 10 µM,> 10 µM,> 10 µM,> 50 µM,> 50 µM,CO[C@H]1CN(C2CCN(C(=O)c3cncn3[C@@H](C)c3ccccc3-c3ccc(F)cc3)CC2)CC[C@@H]1O [Compound 10]
5.08 µM,0.0062 µM,> 10 µM,> 10 µM,> 10 µM,> 50 µM,41.9 µM,CO[C@@H]1CN(C2CCN(C(=O)c3cncn3[C@@H](C)c3ccccc3-c3ccc(F)cc3)CC2)CC[C@@H]1O [Compound 12]
4.87 µM,0.0058 µM,> 10 µM,> 10 µM,> 10 µM,> 50 µM,13.9 µM,C[C@@H](c1ccccc1-c1ccc(F)cc1)n1cncc1C(=O)N1CC[C@H]2NCCO[C@@H]2C1 [Compound 4]
4.05 µM,0.0073 µM,> 10 µM,> 10 µM,> 10 µM,> 50 µM,37.4 µM,"C[C@@H](c1ccccc1-c1ccc(F)cc1)n1cncc1C(=O)N1CCCC(N2CCC(C)(O)CC2)CC1 (single isomer, unassigned) [Compound 3a]"
2.39 µM,0.0066 µM,> 10 µM,> 10 µM,> 10 µM,42.6 µM,12.6 µM,"C[C@@H](c1ccccc1-c1ccc(F)cc1)n1cncc1C(=O)N1CCCC(N2CCC(C)(O)CC2)CC1 (single isomer, unassigned) [Compound 3b]"
